Entries after “also recorded” stand apart in the source; their conditions may differ.
Columns and labels:
[1] = test system: cultured human hair follicles; details: cultured human hair follicles ex vivo; cited from earlier work
[2] = test system: hair follicle keratinocytes; test: Ki67 immunofluorescence staining of back skin sections (proliferation of hair follicle keratinocytes and stem cells); type: in vivo; details: Trpv4+/+ mice, 48 h after single intradermal injection, vs vehicle
Procedure: (§1) The second telogen of C57BL/6J mice starts at day 49 after birth and it will last around 5 weeks (Muller-Rover et al., 2001). On day 48 after birth, the mice were shaved. On day 49 after birth, wt and Trpv4^−/− mice were intradermally injected with 30-μM GSK1016790A (GSK101, a selective TRPV4 agonist) (50 μl), which is diluted in saline from the 100 mM stock solution. GSK2193874 (GSK219, a selective TRPV4 antagonist) (25 mg·kg^−1, 200 μl dilution in saline from 50 mg·ml^−1 stock solution) (Thorneloe et al., 2012) or PD98059 (10 mg·kg^−1, 200 μl dilution in saline from 37.5 mg·ml^−1 stock solution) was applied through intraperitoneal injection on day 48 after birth or 1 hour prior to GSK1016790A injection. Insulin syringes with 30-G needle (UltiCare) were used for intradermal injection and 1-ml Sub-Q syringes with 26-G needle (BD) were used for intraperitoneal injection. […] In mice with newly generated hair, generally, there was a small patch of skin with dark color and longer hair shaft at the injection sites compared with that in the surrounding area.
Dorsal skin samples were fixed overnight at 4° C. in Zamboni's fixative (2% paraformaldehyde, 15% [v/v] saturated picric acid, 0.1-M PB, pH 7.3), dehydrated in ethanol, embedded in paraffin and sectioned at 10 μm. […]

hair follicles [3] = test: Topical application on tape-stripped shaved back skin, hair growth; type: in vivo, mice
From the text: FIG. 10. […] Images were taken on day 12 after GSK101 treatment.
A TRPV4-dependent increase in hair growth was observed (FIG. 10).
Tape stripping was used to remove the stratum corneum to facilitate GSK101 entry into the skin. The agent can be applied with no additional agent or skin treatment method. The effect was removed by genetic ablation of the TRPV4 function.

[4] = test system: human epidermal keratinocytes HaCaT cells; details: cited from earlier work
hair follicles [5] = test: Hair follicle regeneration / new hair growth after a single intradermal injection in telogen back skin; type: in vivo, mice
Procedure: (§2) The second telogen of C57BL/6J mice starts at day 49 after birth and it will last around 5 weeks (Muller-Rover et al., 2001). On day 48 after birth, the mice were shaved. On day 49 after birth, wt and Trpv4^−/− mice were intradermally injected with 30-μM GSK1016790A (GSK101, a selective TRPV4 agonist) (50 μl), which is diluted in saline from the 100 mM stock solution. GSK2193874 (GSK219, a selective TRPV4 antagonist) (25 mg·kg^−1, 200 μl dilution in saline from 50 mg·ml^−1 stock solution) (Thorneloe et al., 2012) or PD98059 (10 mg·kg^−1, 200 μl dilution in saline from 37.5 mg·ml^−1 stock solution) was applied through intraperitoneal injection on day 48 after birth or 1 hour prior to GSK1016790A injection. Insulin syringes with 30-G needle (UltiCare) were used for intradermal injection and 1-ml Sub-Q syringes with 26-G needle (BD) were used for intraperitoneal injection. Seventeen days after GSK1016790A injection, the mice were killed and the skin samples of the injection area were collected for analysis. In mice with newly generated hair, generally, there was a small patch of skin with dark color and longer hair shaft at the injection sites compared with that in the surrounding area.
Dorsal skin samples were fixed overnight at 4° C. in Zamboni's fixative (2% paraformaldehyde, 15% [v/v] saturated picric acid, 0.1-M PB, pH 7.3), dehydrated in ethanol, embedded in paraffin and sectioned at 10 μm. Haematoxylin and eosin (H&E) staining was performed according to standard protocols to analyze the hair follicle cycle stages as described, including the length of the hair follicle, the size, and location of dermal papilla and the position of the hair shaft and the inner root sheath (Muller-Rover et al., 2001). For immunofluorescence detection, sections were deparaffinized, rehydrated, and subjected to antigen retrieval in 10-mM citrate buffer (pH 6.0). After blocking, sections were stained with primary antibody against Ki67 (1:1,000; Thermo Fisher Scientific, Cat #PA1-29503, RRID: AB_1955602), phosphop-p44/42 MAPK (1:200; Cell Signaling Technology, Cat #4370S, RRID: AB_2315112), p44/42 MAPK (1:1,000; Cell Signaling Technology, Cat #4695, RRID: AB_390779), keratin 14 (1:1,000; BioLegend, […], RRID: AB_2616962) and keratin 15 (1:1,000; BioLegend, Cat #833901, RRID: AB_2564970) at 4° C. overnight in a humid chamber, followed by incubation for 1 h at room temperature (RT) with Cy3-conjugated secondary antibody (1:500; Jackson ImmunoResearch, Cat #111-005-003, RRID: AB_2337913) and Alexa Fluor 488-conjugated secondary antibody (1:500; Jackson ImmunoResearch, Cat #703-005-155, RRID: AB_2340346). Nuclei were stained with DAPI (SouthernBiotech). The Immuno-related procedures used comply with the recommendations made by the British Journal of Pharmacology Alexander et al., 2018.

ERK1/2 = ERK1/2 phosphorylation in skin (western blot, immunofluorescence); type: in vivo, mice; details: for effect of pretreatment on GSK1016790A-induced ERK1/2 phosphorylation: intraperitoneal pretreatment one hour before GSK1016790A, skin harvested 15 min after
Procedure: as §1
(§3) Dorsal skin samples were fixed overnight at 4° C. in Zamboni's fixative (2% paraformaldehyde, 15% [v/v] saturated picric acid, 0.1-M PB, pH 7.3), dehydrated in ethanol, embedded in paraffin and sectioned at 10 μm. Haematoxylin and eosin (H&E) staining was performed according to standard protocols to analyze the hair follicle cycle stages as described, including the length of the hair follicle, the size, and location of dermal papilla and the position of the hair shaft and the inner root sheath (Muller-Rover et al., 2001). For immunofluorescence detection, sections were deparaffinized, rehydrated, and subjected to antigen retrieval in 10-mM citrate buffer (pH 6.0). […]
The skin was lysed in RIPA lysis and extraction buffer (Thermo Fisher Scientific, USA). Following cell protein quantitation, 10 μg of protein per sample were subjected to 12% SDS-PAGE. […]

[6] = test system: Bmp6, Fgf18, Fgf7, Wnt16 and Nog mRNA; test: Quantitative RT-PCR of whole skin lysates for anagen-inhibiting and anagen-promoting factors; type: in vivo, mice
Procedure: as §2
For real-time PCR, skin sample was collected 24 h after GSK1016790A injection. Total RNA was extracted from mouse skin tissue using RNeasy kit (Qiagen, Germantown, MD, […]) according to the manufacturer's instructions. RNA was treated with DNase I (Invitrogen, Carlsbad, CA, USA), and the cDNA was synthesized in vitro using ThermoScript® RT-PCR System kit (Invitrogen). Reactions were carried out in a volume of 20 μl per reaction containing 10-μl SYBR Green master mix (2×) (Roche, Indianapolis, IN, USA), 0.5-μl cDNA, 1.2-μl 5-μM primer mix, and 8.3-μl water using StepOnePlus real-time PCR system (Applied Biosystems, Foster City, CA, USA). Relative expression of genes was normalized to GAPDH and calculated using the 2^−ΔΔct methods.

TRPV4 = target: T1, TRPV4 (Mus musculus, UniProt Q9EPK8); test: Normal hair follicle cycling under pharmacological inhibition of TRPV4 (H&E of back skin); type: in vivo; details: Trpv4+/+ mice treated with GSK219
T1 construct: back skin sections from Trpv4^+/+ mice, Trpv4^+/+ mice treated with GSK219 and Trpv4^−/− mice; from tissue; host or cells: back skin of living wild-type C57BL/6J (Trpv4+/+) mice
Procedure: FIG. 6. Top: hair growth cycle in mice. Bottom: representative images of hematoxylin and eosin (H&E) staining of back skin sections from Trpv4^+/+ mice, Trpv4^+/+ mice treated with GSK219 and Trpv4^−/− mice on Day 15, 21, 36, 40, 49. Scale bar=100 μm.
as §3

[7] = Cre+ K14Cre, Trpv4f/f mice vs wt
[8] = Cre+ K14Cre, Trpv4f/f mice, after injection
[9] = Trpv4+/+ mice, whole skin, 24 h after injection

T1 sequence (Q9EPK8 whole entry): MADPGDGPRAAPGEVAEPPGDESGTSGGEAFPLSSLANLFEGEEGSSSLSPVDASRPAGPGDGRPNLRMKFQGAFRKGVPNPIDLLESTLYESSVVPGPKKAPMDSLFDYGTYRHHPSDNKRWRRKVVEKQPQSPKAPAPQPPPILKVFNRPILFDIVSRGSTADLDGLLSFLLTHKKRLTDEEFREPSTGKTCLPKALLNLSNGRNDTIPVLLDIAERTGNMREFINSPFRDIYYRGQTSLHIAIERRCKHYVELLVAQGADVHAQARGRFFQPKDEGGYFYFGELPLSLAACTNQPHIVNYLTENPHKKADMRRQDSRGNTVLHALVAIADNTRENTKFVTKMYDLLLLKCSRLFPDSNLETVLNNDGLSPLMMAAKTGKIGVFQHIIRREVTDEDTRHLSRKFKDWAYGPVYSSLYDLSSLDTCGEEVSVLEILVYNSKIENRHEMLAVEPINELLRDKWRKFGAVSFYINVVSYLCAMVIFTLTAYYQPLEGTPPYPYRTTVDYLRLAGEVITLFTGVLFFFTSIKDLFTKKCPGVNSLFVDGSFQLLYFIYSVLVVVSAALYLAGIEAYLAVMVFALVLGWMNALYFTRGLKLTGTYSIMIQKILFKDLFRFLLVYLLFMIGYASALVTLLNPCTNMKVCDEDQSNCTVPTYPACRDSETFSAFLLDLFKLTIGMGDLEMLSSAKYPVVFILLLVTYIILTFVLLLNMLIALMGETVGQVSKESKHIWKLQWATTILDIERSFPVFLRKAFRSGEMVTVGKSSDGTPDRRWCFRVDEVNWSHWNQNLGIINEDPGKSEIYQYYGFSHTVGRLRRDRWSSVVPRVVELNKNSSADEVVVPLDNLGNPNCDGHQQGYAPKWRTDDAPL

## CC(C)C[C@H](NC(=O)c1cc2ccccc2s1)C(=O)N1CCN(C(=O)[C@H](CO)NS(=O)(=O)c2ccc(Cl)cc2Cl)CC1 [GSK1016790A, N-((1S)-1-{[4-((2S)-2-{[(2,4-dichlorophenyl)sulfonyl]amino}-3-hydroxypropanoyl)-1-piperazinyl]carbonyl}-3-methylbutyl)-1-benzothiophene-2-carboxamide]
[1]
  number of apoptotic cells: increased
  ratio of proliferating cells: decreased
[2]
  number of Ki67-positive K14-expressing hair follicle keratinocytes: significantly increased; also recorded: increase
  number of Ki67-positive K15-expressing hair follicle stem cells in the bulge: increased number; also recorded: increase
Hair follicles [3]; 100 μM applied once, tape stripping of shaved back, day 12, vs vehicle
  hair growth after topical application: facilitate hair growth; also recorded: increased hair growth
Hair follicles [3]; TRPV4 ablated mice, tape stripping
  hair growth effect of topical application under genetic ablation of TRPV4 function: removed
[4]; HaCaT cells (PMID: 29293584)
  membrane currents: activated membrane currents
[4]; HaCaT cells (PMID: 30022772)
  IL-6 production: induced
  IL-8 production: induced
Hair follicles [5]; 7-week-old wt (Trpv4+/+) mice, single intradermal injection (30 μM, 50 μl), 17 days after injection, vs vehicle
  new hair growth (newly generated hair coat) at the injection site: newly generated hair coat could be clearly observed at the injection site in a dose-dependent manner; also recorded: persistently induced hair growth
Hair follicles [5]; Cx3cr1Cre, Trpv4f/f mice vs Cre− wt littermates, single intradermal injection
  hair regeneration in macrophage-specific TRPV4 conditional KO mice: comparable hair regeneration
Hair follicles [5]; K14Cre, Trpv4f/f mice, single intradermal injection
  hair regeneration in keratinocyte-specific TRPV4 conditional KO mice: completely absent
Hair follicles [5]; Trpv4−/− mice, single intradermal injection
  GSK1016790A-induced hair regeneration in global TRPV4 KO mice: completely absent
Hair follicles [5]; wt mice, single intradermal injection, H&E of back skin, vs vehicle
  hair follicle elongation (hair follicle length): more than fourfold
Hair follicles [5]; wt mice, single intradermal injection, vehicle: telogen or anagen I
  hair cycle stage of hair follicles: most of the hair follicles had entered anagen Ill-VI phases
ERK1/2; 15 min after a single intradermal injection, skin at injection site
  ERK1/2 phosphorylation: significantly increased
[6]; Cre+ K14Cre, Trpv4f/f mice
  Bmp6 mRNA expression level: did not affect
  Fgf18 mRNA expression level: did not affect
[6]; [7]
  Fgf7 expression compared with wt mice injected with GSK1016790A: significantly decreased
  Nog expression compared with wt mice injected with GSK1016790A: significantly decreased
  Wnt16 expression compared with wt mice injected with GSK1016790A: significantly decreased
[6]; [8]
  Fgf7 expression: still increased
  Nog expression: still increased
  Wnt16 expression: still increased
[6]; [9]
  Bmp6 mRNA transcripts: significant decrease
  Fgf7 mRNA transcripts: markedly increased
  Fgf18 mRNA transcripts: significant decrease
  Nog mRNA transcripts: markedly increased
  Wnt16 mRNA transcripts: markedly increased
[6]; Trpv4−/− mice, 30 μM intradermal, 24 h
  GSK1016790A-induced changes in Bmp6, Fgf18, Fgf7, Wnt16 and Nog expression under genetic ablation of TRPV4: significantly attenuated

## O=C(NC1(c2ccccc2)CC1)c1c(CN2CCC(N3CCCCC3)CC2)c(-c2cccc(C(F)(F)F)c2)nc2cc(Br)ccc12 [GSK2193874]
TRPV4
  normal transition of first telogen to second anagen: no effect
Hair follicles [5]; GSK2193874 25 mg·kg−1 intraperitoneal pretreatment, wt mice
  effect of pretreatment on GSK1016790A-induced hair regeneration: completely abolished
ERK1/2
  effect of pretreatment on GSK1016790A-induced ERK1/2 phosphorylation: severely attenuated
[6]; GSK2193874 pretreatment, Trpv4+/+ mice
  effect of pretreatment on GSK1016790A-induced changes in Bmp6, Fgf18, Fgf7, Wnt16 and Nog expression: significantly attenuated

## COc1cccc(-c2cc(=O)c3ccccc3o2)c1N [PD98059]
Hair follicles [5]; PD98059 10 mg·kg−1 intraperitoneal pretreatment, 17 days after GSK1016790A injection
  hair growth after GSK1016790A injection in pretreated mice: completely absent
ERK1/2
  effect of pretreatment on GSK1016790A-induced ERK1/2 phosphorylation: severely attenuated
[6]; PD98059 pretreatment vs vehicle control
  effect of pretreatment on GSK1016790A-induced decrease of Bmp6 and Fgf18 and increase of Fgf7, Wnt16 and Nog expression: completely reversed

Source: US12582649B2, “Compositions and methods for hair follicle regeneration” (Washington University, priority 2020, dated 2026)
